Data on seven molecules can be found in patent US20220295849A1, “Steviol Glycoside Compositions for Oral Ingestion or Use” (CARGILL, Incorporated, priority 2016, published 2022).

The structures appear in SMILES notation.

For data set [1] the following is noted: literature; cited from earlier work.
The conditions of data set [2]: literature; cited from earlier work. This is another data set of the same source.
Data set [3] can be described thus: Equilibrium solubility (80° C. for 15 minutes, cooled to room temperature, observed up to 4 days). In kind it is physicochemical. Particulars: for equilibrium solubility (soluble/insoluble): 80° C. 15 minutes, then room temperature up to 4 days; for equilibrium solubility: heated to 80° C. for 15 minutes, room temperature, at least 4 days. The source says: The composition can optionally be expressed in terms of the concentration of one or more steviol glycoside(s). Beneficially, it has been founds that compound(s) SG101-104 can improve solubility of steviol glycosides in an aqueous solution, and therefore compositions can be prepared having a greater concentration of steviol glycosides in solution. […] Clear solutions without precipitates are considered soluble. Unless indicated otherwise herein, the term “solubility” refers to “equilibrium solubility.” […]

Data set [4] in a line: Instantaneous solubility in deionized water at room temperature. The note with it: for instantaneous solubility: water. It counts as physicochemical. An excerpt: The composition can optionally be expressed in terms of the concentration of one or more steviol glycoside(s). Beneficially, it has been founds that compound(s) SG101-104 can improve solubility of steviol glycosides in an aqueous solution, and therefore compositions can be prepared having a greater concentration of steviol glycosides in solution. […] Clear solutions without precipitates are considered soluble. Unless indicated otherwise herein, the term “solubility” refers to “equilibrium solubility.”
Instantaneous solubility is determined by mixing steviol glycoside with deionized water vigorously for 10 minutes at room temperature. […] Clear solutions without precipitates are considered soluble.

The nature of data set [5]: Sensory evaluation (tasting) of glycoside solutions in reverse osmosis water, Test A and Test B. It counts as in vivo. The note with it: for summary of sensory evaluation: summary of Example 5. The method, then:
(§1) Glycoside samples (SG101-104) were isolated and purified from fermentation broth, purified Rebs A, B, and D are of leaf origin and Reb M is chemically synthesized. All samples were dissolved in reverse osmosis water at the concentrations indicated. Unsweetened black tea was used in one set of experiments. Approximately 2-3 milliliters of each solution was tasted and sensory evaluations conducted by two individuals. In one set of experiments a third individual also tasted.

The nature of data set [6]: Sensory evaluation (tasting) of glycoside solutions in unsweetened black tea, Test A. In kind it is in vivo. How it is done:
as §1

The nature of data set [7]: Sucrose equivalent value (SEV) in citric acid buffer. It counts as in vivo. Particulars: for SEV: citric acid buffer at pH=3.0; for Sucrose equivalent value / relative sweetness scale-sucrose = 1: 250 ppm in citric buffer, pH = 3.0. An excerpt:
Sweetness may be determined by measuring sucrose equivalent values (SEV) using methods and processes well known to those skilled in the art. For example, SEV may be determined by measuring sweetness equivalence to a reference sucrose solution. Typically, taste panelists are trained to detect and scale sweetness of reference sucrose solutions containing between 10 g to 150 g/kg sucrose. A sweetener composition containing one or more glycosides are then tasted at a series of dilutions to determine the concentration of the sweetener composition that is as sweet as a given sucrose reference. For example, if a sweetener composition is as sweet as 50 g/kg of sucrose solution in a citric acid buffer at pH 3.1, then the sweetener composition is assigned a SEV of 5.
For example, SEVs for SG101 and SG102 at 200 ppm are 0.6 and 1.0, respectively; SEV=1.6 for SG101 at 500 ppm and SEV=1.2 at 400 ppm; and SEV=1.5 for SG102 at 400 ppm (as measured in a citric acid buffer at pH=3.0). Thus, at ppm<500, SG101 may be employed as a sensory modifier, and at ppm<400, SG102 may be employed as a sensory modifier in a beverage.

The mark [8] stands for this setting: Test A, 200 ppm in water, three experienced taste testers.
The mark [9] stands for this setting: SG compound alone in tea, about 200 ppm (Table 7).

Turning to `C=C1C[C@@]23CC[C@H]4[C@@](C)(CCC[C@@]4(C)C(=O)O[C@@H]4O[C@H](CO)[C@@H](O)[C@H](O)[C@H]4O)[C@@H]2CC[C@]1(O[C@@H]1O[C@H](CO)[C@@H](O)[C@H](O[C@@H]2O[C@H](CO)[C@@H](O)[C@H](O)[C@H]2O)[C@H]1O[C@@H]1O[C@H](CO)[C@@H](O)[C@H](O)[C@H]1O)C3` [Reb A, rebaudioside A], the “taste properties” value in data set [1] was “has off-taste issues”.

`C=C1C[C@@]23CC[C@H]4[C@@](C)(CCC[C@@]4(C)C(=O)O[C@@H]4O[C@H](CO)[C@@H](O)[C@H](O)[C@H]4O[C@@H]4O[C@H](CO)[C@@H](O)[C@H](O)[C@H]4O)[C@@H]2CC[C@]1(O[C@@H]1O[C@H](CO)[C@@H](O)[C@H](O[C@@H]2O[C@H](CO)[C@@H](O)[C@H](O)[C@H]2O)[C@H]1O[C@@H]1O[C@H](CO)[C@@H](O)[C@H](O)[C@H]1O)C3` [Reb D, rebaudioside D]: the “aqueous solubility” value in data set [2] was “low solubility in water at room temperature”. Also, the “equilibrium solubility (soluble/insoluble)” value in data set [3] (0.08%) is given as “soluble”; in data set [3] (0.10%), “insoluble”; in data set [3] (0.15%), “insoluble”; in data set [3] (0.20%), “insoluble”. The molecule further yielded an equilibrium solubility in data set [3] of 0.08%. Moreover, the “taste properties” value in data set [1] was “slow onset of sweetness and was very clean”. The “times sweeter than sucrose” value in data set [1] is on record as 200-220 times. The “instantaneous solubility (soluble/insoluble)” value is “insoluble” in data set [4] (0.08% in deionized water, clear solution without precipitates = soluble); “insoluble” in data set [4] (0.10% in deionized water); “insoluble” in data set [4] (0.15% in deionized water); “insoluble” in data set [4] (0.20% in deionized water). The instantaneous solubility is recorded as under 0.08% in data set [4] and “less than 0.08%” in data set [4] (listed as rebaudioside D).

With `C=C1C[C@@]23CC[C@H]4[C@@](C)(CCC[C@@]4(C)C(=O)O[C@@H]4O[C@H](CO)[C@@H](O)[C@H](O[C@@H]5O[C@H](CO)[C@@H](O)[C@H](O)[C@H]5O)[C@H]4O[C@@H]4O[C@H](CO)[C@@H](O)[C@H](O)[C@H]4O)[C@@H]2CC[C@]1(O[C@@H]1O[C@H](CO)[C@@H](O)[C@H](O[C@@H]2O[C@H](CO)[C@@H](O)[C@H](O)[C@H]2O)[C@H]1O[C@@H]1O[C@H](CO)[C@@H](O)[C@H](O)[C@H]1O)C3` [Reb M, rebaudioside M], the “aqueous solubility” value in data set [2] was “poor aqueous solubility and dissolution qualities in beverage formulations”. The sensory comments result is listed as “Typical mid-sweet for Reb M, fairly well rounded, quick rise, some tailing, some bitter” in data set [5] (setting [8]); “Higher sweet, faster onset than 200 ppm, cotton candy sweetness—skews to HFCS longer linger, sharper bitterness—but not oppressing sweetness” in data set [5] (Test A, 400 ppm in water); “clean, sweet, spiky sweetness” in data set [5] (Test B, Reb M alone in water, concentration not stated (200-398 ppm prepared)); “Nice subtle sweetness, feels like sugar, but with long linger very good” in data set [6] (Reb M alone in tea, concentration not stated (200.4 and 401.0 ppm prepared)). The “equilibrium solubility (soluble/insoluble)” value in data set [3] (0.10%) was “soluble”; in data set [3] (0.13%) it was “soluble”; in data set [3] (0.20%), “soluble”; in data set [3] (0.30%) it was “insoluble”. Moreover, the equilibrium solubility result in data set [3] was “at least 0.2%”; in data set [3] (listed as rebaudioside M) it was “about 0.2%”. In data set [1], the “taste properties” value is “has higher sweetness intensity and is more potent than other steviol glycosides”. The “instantaneous solubility (soluble/insoluble)” value was “soluble” in data set [4] (0.10% in deionized water), “soluble” in data set [4] (0.13% in deionized water), “insoluble” in data set [4] (0.20% in deionized water) and “insoluble” in data set [4] (0.30% in deionized water). Further, the instantaneous solubility result was “at least 0.13%” in data set [4] and “about 0.13%” in data set [4] (listed as rebaudioside M).

For `C=C1C[C@@]23CCC4[C@](C)(C(=O)OC5OC(CO)C(O)C(O)C5OC5OC(CO)C(O)C(O)C5O)CCC[C@@]4(C)[C@@H]2CCC1(OC1OC(COC2OC(CO)C(O)C(O)C2O)C(O)C(OC2OC(CO)C(O)C(O)C2O)C1OC1OC(CO)C(O)C(O)C1O)C3` (stereo partly drawn) [SG101], the sensory comments entry in data set [5] (setting [8]) is on record as “not sweet, astringent, cloying—mouth drying on the tongue”; in data set [6] (setting [9]), “Zero sweetness, seems less than in water, naked tea”. In addition, the “summary of sensory evaluation” value in data set [5] is “less sweet than SG103 and SG104”. Further, the results for the SEV in data set [7] (200 ppm), in data set [7] (400 ppm) and in data set [7] (500 ppm) were 0.6, 1.2 and 1.6, respectively.

With `C=C1C[C@@]23CCC4[C@](C)(C(=O)OC5OC(CO)C(O)C(OC6OC(CO)C(O)C(O)C6O)C5OC5OC(CO)C(O)C(O)C5O)CCC[C@@]4(C)[C@@H]2CCC1(OC1OC(COC2OC(CO)C(O)C(O)C2O)C(O)C(OC2OC(CO)C(O)C(O)C2O)C1OC1OC(CO)C(O)C(O)C1O)C3` (stereo partly drawn) [SG102], the sensory comments result is reported as “a bit sweeter than 1-1, sweetness does have quick onset” in data set [5] (setting [8]) and “Not sweet, slightly less astringent, some additional roundedness” in data set [6] (setting [9]). In data set [5], the “summary of sensory evaluation” value is “less sweet than SG103 and SG104”. Further, the SEV came out at 1.0 in data set [7] (200 ppm) and 1.5 in data set [7] (400 ppm).

As to `C=C1C[C@@]23CCC4[C@](C)(C(=O)OC5OC(CO)C(O)C(O)C5OC5OC(CO)C(O)C(O)C5O)CCC[C@@]4(C)[C@@H]2CCC1(OC1OC(CO)C(O)C(OC2OC(COC4OC(CO)C(O)C(O)C4O)C(O)C(O)C2O)C1OC1OC(CO)C(O)C(O)C1O)C3` (stereo partly drawn) [SG103], the sensory comments entry in data set [5] (setting [8]) is given as “as sweet or sweeter than 200 ppm Reb M, more sucrosey, sugary quality characteristics (high fructose corn syrup (HFCS), cotton candy notes) are reminiscent of Reb M at 400 ppm but not as sweet, “fuller” feeling”. Moreover, in data set [5], the “summary of sensory evaluation” value is on record as “good sole sweeteners”. Further, the sensory comments result in data set [6] (setting [9]) was “Slower onset than Reb M by itself, not as sweet as Reb M, slightly more licorice aftertaste”. Besides, in data set [7], the Sucrose equivalent value was 4.8 and the “relative sweetness scale-sucrose = 1” value is given as 192X.

`C=C1C[C@@]23CCC4[C@](C)(C(=O)OC5OC(CO)C(O)C(OC6OC(CO)C(O)C(O)C6O)C5OC5OC(CO)C(O)C(O)C5O)CCC[C@@]4(C)[C@@H]2CCC1(OC1OC(CO)C(O)C(OC2OC(COC4OC(CO)C(O)C(O)C4O)C(O)C(O)C2O)C1OC1OC(CO)C(O)C(O)C1O)C3` (stereo partly drawn) [SG104]: in data set [5] (setting [8]), the sensory comments entry is recorded as “as sweet or sweeter than 200 ppm Reb M, more rounded sweetness, enhanced sugar quality effects (sensations reminiscent of sucrose, vanilla), “fuller” feeling”. Moreover, the “summary of sensory evaluation” value in data set [5] was “good sole sweeteners”. The sensory comments result in data set [6] (setting [9]) is “As sweet as Reb M, very sucrosey compared to Reb M, a little back end licorice”. Also, in data set [7], the Sucrose equivalent value is reported as 6.5 and the “relative sweetness scale-sucrose = 1” value came out at 260X.
